The source of these data is US7618983B2, “Bicyclic triazole α4 integrin inhibitors” (Janssen Pharmaceutica, N.V., priority 2004, dated 2009).

Experiment [1] has as its system oxazolone-induced contact hypersensitivity. As to conditions: 6 mg/kg, sc; compared with α4 antibody PS/2; cited from earlier work.
Experiment [2] concerns the target T1, α4β1 (Homo sapiens, UniProt P05556+P13612). The following applies: cited from earlier work.
The subject of experiment [3] is heterotopic heart allograft. As to conditions: hyperlipidemic rabbit; cited from earlier work.
The target in experiment [4] is T1, α4β1. Put plainly: Ramos Cell Adhesion Assay (α4β1 Mediated Adhesion/VCAM-1). It counts as cell-based. More on the design: Ramos Cell Adhesion Assay (α4β1 Mediated Adhesion/VCAM-1); endogenous in cells; host or cells: Ramos cells. As to the method: Ramos Cell Adhesion Assay (α4β1 Mediated Adhesion/VCAM-1)
Immulon 96 well plates (Dynex) were coated with 100 μL recombinant hVCAM-1 at 4.0 μg/mL in 0.05 M NaCO3 buffer pH 9.0 overnight at 4° C. (R&D Systems). Plates were washed 3 times in PBS with 1% BSA and blocked for 1 h @ room temperature in this buffer. PBS was removed and compounds to be tested (50 μL) were added at 2× concentration. Ramos cells, (50 μL at 2×10^6/mL) labeled with 5 μM Calcein AM (Molecular Probes) for 1 h at 37° C., were added to each well and allowed to adhere for 1 h at room temperature. Plates were washed 3× in PBS+1% BSA and cells were lysed for 15 minutes in 100 μL of 1 M Tris pH 8.0 with 1% SDS. The plate was read at 485 nm excitation and 530 nm emission.

In the next experiment the target is T2, human α4β7 integrin (Homo sapiens, UniProt P13612+P26010).
T2 construct: expressed in transfected cells; host or cells: K562 cells, stably transfected
T2 sequence (P13612 34-1032): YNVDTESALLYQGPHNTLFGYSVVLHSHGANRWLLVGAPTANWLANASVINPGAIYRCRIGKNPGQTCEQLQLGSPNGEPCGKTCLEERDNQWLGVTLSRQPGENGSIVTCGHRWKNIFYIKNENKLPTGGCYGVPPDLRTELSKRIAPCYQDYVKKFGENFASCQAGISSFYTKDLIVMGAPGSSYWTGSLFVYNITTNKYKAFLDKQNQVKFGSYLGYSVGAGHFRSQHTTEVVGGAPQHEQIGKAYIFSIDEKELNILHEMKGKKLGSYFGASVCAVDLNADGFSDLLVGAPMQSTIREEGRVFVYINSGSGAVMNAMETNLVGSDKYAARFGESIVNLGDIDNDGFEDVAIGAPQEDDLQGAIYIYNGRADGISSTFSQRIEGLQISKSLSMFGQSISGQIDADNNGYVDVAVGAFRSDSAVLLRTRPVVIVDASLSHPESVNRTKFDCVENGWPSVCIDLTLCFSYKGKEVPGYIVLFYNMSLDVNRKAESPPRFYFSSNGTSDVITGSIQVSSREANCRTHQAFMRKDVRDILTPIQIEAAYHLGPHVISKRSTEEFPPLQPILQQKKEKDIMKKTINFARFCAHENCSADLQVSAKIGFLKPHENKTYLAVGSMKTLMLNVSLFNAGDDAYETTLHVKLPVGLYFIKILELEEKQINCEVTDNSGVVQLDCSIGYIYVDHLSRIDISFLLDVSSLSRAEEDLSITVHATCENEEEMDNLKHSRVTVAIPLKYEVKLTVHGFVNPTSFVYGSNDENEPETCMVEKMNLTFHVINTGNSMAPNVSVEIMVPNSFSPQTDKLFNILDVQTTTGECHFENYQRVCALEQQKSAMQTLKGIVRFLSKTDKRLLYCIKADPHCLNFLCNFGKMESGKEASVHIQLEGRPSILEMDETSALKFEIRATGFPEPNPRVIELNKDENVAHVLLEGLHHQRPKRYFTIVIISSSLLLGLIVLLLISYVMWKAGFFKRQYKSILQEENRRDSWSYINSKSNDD
T2 sequence (P26010 20-798): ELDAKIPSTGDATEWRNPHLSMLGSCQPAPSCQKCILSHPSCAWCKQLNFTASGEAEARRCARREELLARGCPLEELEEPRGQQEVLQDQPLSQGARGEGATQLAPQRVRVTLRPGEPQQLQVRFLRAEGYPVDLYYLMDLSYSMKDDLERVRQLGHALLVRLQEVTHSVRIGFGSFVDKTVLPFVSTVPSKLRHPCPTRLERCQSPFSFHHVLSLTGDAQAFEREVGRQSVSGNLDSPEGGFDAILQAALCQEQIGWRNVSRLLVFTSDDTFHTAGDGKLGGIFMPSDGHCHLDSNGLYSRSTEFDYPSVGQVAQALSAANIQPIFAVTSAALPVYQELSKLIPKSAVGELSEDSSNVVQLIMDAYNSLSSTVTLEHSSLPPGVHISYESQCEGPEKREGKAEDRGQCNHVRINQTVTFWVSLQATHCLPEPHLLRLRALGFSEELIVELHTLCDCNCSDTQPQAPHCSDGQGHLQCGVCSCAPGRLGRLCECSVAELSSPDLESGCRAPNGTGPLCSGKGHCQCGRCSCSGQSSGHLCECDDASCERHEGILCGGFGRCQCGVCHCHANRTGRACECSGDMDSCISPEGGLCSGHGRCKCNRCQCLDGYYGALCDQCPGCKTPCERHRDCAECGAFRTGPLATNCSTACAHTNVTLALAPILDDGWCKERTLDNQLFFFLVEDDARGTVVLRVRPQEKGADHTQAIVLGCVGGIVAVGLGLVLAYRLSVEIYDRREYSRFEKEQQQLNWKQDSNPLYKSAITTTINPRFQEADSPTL
Put plainly: α4β7-K562 Cell Adhesion Assay (α4β7 Mediated Adhesion/MAdCAM-1). It counts as cell-based. The procedure: α4β7-K562 Cell Adhesion Assay (α4β7 Mediated Adhesion/MAdCAM-1)
M2 anti-FLAG antibody coated 96-well plates (Sigma) were coated for 1 hour at 4° C. with 2-8 μl/well recombinant FLAG-hMAdCAM-1 contained in 100 μL of Dulbecco's PBS, pH 7.4, with 1% BSA and 1 mM Mn^2+ (PBS-BSA-Mn). Plates were washed once with PBS-BSA-Mn. Buffer was removed and compounds to be tested (50 μL) were added at 2 times concentration. Stably transfected K562 cells expressing human α4β7 integrin, (50 μL at 2×10^6/mL) that had been labeled with 100 μg/mL carboxymethyl fluorescein diacetate succinimidyl ester (CFDA-SE; Molecular Probes) for 15 min at 37° C. were added to each well and allowed to adhere for 1 h at room temperature. Plates were washed 4 times in PBS-BSA-Mn and then cells were lysed for 2 minutes by addition of 100 μL of PBS without Ca, Mg supplemented with 0.1 M NaOH. The plate was read on a 96-well fluorescent plate reader at 485 nm excitation and 530 nm emission.

Setting [5] is: Ramos cells adhering to recombinant hVCAM-1, read-out: α4β1 IC50.
The mark [6] stands for this setting: K562 cells expressing human α4β7 adhering to FLAG-hMAdCAM-1, 1 mM Mn2+, read-out: α4β7, Madcam IC50.

Like-named read-outs stand apart in the source and are kept apart here.

T1 sequence (P05556 21-798, one chain of several): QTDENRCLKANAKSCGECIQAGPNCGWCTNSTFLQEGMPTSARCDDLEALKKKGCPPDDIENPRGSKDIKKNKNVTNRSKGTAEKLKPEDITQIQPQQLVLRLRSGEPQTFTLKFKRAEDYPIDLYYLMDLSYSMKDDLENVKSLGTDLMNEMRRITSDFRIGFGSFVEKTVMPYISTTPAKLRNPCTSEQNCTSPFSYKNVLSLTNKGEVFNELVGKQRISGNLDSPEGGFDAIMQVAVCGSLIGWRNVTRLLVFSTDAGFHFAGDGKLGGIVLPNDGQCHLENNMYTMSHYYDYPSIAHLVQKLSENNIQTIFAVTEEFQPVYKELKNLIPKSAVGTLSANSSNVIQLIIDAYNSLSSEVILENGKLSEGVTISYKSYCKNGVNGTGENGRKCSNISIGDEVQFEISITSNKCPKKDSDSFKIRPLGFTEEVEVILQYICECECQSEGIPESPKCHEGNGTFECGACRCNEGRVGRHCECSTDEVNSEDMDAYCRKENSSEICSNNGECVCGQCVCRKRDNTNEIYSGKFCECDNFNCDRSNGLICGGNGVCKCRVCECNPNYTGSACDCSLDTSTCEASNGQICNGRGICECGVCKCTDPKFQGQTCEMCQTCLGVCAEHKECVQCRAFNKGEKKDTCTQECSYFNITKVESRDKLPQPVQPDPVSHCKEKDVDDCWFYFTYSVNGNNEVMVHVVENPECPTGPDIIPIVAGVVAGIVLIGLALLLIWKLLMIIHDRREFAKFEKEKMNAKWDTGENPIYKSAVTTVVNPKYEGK

Turning to Phenylacetyl-Leu-Asp-Phe-D-Pro-NH2, in experiment [1], the “efficacy in contact hypersensitivity” value is recorded as “efficacy similar to the α4 antibody PS/2”. Further, the IC50 (in general, the concentration that gives 50% inhibition) on α4β1 [2] is 2000 nM. Further, in experiment [3], the “efficacy in heart allograft model” value is given as “effective”.

On to `O=C(Nc1ccc(C[C@H](NC(=O)[C@@H]2CCc3nnc(Cc4ccccc4)n32)C(=O)O)cc1)c1c(Cl)cccc1Cl` [Cpd 4, 2-(S)-[(3-Benzyl-6,7-dihydro-5H-pyrrolo[2,1-c][1,2,4]triazole-5-(S)-carbonyl)-amino]-3-[4-(2,6-dichloro-benzoylamino)-phenyl]-propionic acid], for which the IC50 on α4β1 [4] (setting [5]) was 620 nM; at human α4β7 integrin (setting [6]) it was 290 nM.

As for `O=C(NCc1nnc2n1[C@H](C(=O)N[C@@H](Cc1ccc(NC(=O)c3c(Cl)cccc3Cl)cc1)C(=O)O)CC2)OCc1ccccc1` [Cpd 11, 2-(S)-{[3-(Benzyloxycarbonylamino-methyl)-6,7-dihydro-5H-pyrrolo[2,1-c][1,2,4]triazole-5-(S)-carbonyl]-amino}-3-[4-(2,6-dichloro-benzoylamino)-phenyl]-propionic acid], the IC50 at α4β1 [4] (setting [5]) was > 5000 nM; at human α4β7 integrin (setting [6]), 550 nM.

For `CN(C)C(=O)Oc1ccc(C[C@H](NC(=O)C2CCCc3nnc(-c4ccccc4)n32)C(=O)O)cc1` (stereo partly drawn) [Cpd 1, 3-(4-Dimethylcarbamoyloxy-phenyl)-2-(S)-[(3-phenyl-5,6,7,8-tetrahydro-[1,2,4]triazolo[4,3-a]pyridine-5-carbonyl)-amino]-propionic acid], the IC50 came out at 3300 nM against α4β1 [4] and 1220 nM against human α4β7 integrin.

With `COc1cccc(OC)c1-c1ccc(C[C@H](NC(=O)[C@@H]2CCc3nnc(Cc4ccccc4)n32)C(=O)O)cc1` [Cpd 13, 2-(S)-[(3-Benzyl-6,7-dihydro-5H-pyrrolo[2,1-c][1,2,4]triazole-5-(S)-carbonyl)-amino]-3-(2′,6′-dimethoxy-biphenyl-4-yl)-propionic acid], the figures for the IC50 at α4β1 [4] (setting [5]) and on human α4β7 integrin (setting [6]) were 1190 nM and 320 nM, respectively.

For `CCCc1nnc2n1[C@H](C(=O)N[C@@H](Cc1ccc(NC(=O)c3c(Cl)cccc3Cl)cc1)C(=O)O)CC2` [Cpd 10, 3-[4-(2,6-Dichloro-benzoylamino)-phenyl]-2-(S)-[(3-propyl-6,7-dihydro-5H-pyrrolo[2,1-c][1,2,4]triazole-5-(S)-carbonyl)-amino]-propionic acid], the IC50 at α4β1 [4] (setting [5]) was found to be 1040 nM; at human α4β7 integrin (setting [6]) it was 80 nM.

In the case of `CCOc1ccc2ccccc2c1C(=O)Nc1ccc(C[C@H](NC(=O)[C@@H]2CCc3nnc(Cc4ccccc4)n32)C(=O)O)cc1` [Cpd 7, 2-(S)-[(3-Benzyl-6,7-dihydro-5H-pyrrolo[2,1-c][1,2,4]triazole-5-(S)-carbonyl)-amino]-3-{4-[(2-ethoxy-naphthalene-1-carbonyl)-amino]-phenyl}-propionic acid], the IC50 at α4β1 [4] (setting [5]) and at human α4β7 integrin (setting [6]) was > 5000 nM throughout.

Consider `CN(C)C(=O)Oc1ccc(C[C@H](NC(=O)[C@@H]2CCc3nnc(Cc4ccccc4)n32)C(=O)O)cc1` [Cpd 3, 2-(S)-[(3-Benzyl-6,7-dihydro-5H -pyrrolo[2,1-c][1,2,4]triazole-5-(S)-carbonyl)-amino]-3-(4-dimethylcarbamoyloxy-phenyl)-propionic acid], for which the IC50 against α4β1 [4] is 4150 nM; against human α4β7 integrin, > 5000 nM.

For the compound `COc1cccc(OC)c1-c1ccc(CC(NC(=O)C2CCc3nnc(Cc4c[nH]c5ccccc45)n32)C(=O)O)cc1` (stereo not shown) [Cpd 16, 3-(2′,6′-Dimethoxy-biphenyl-4-yl)-2-{[3-(1H-indol-3-ylmethyl)-6,7-dihydro-5H-pyrrolo[2,1-c][1,2,4]triazole-5-carbonyl]-amino}-propionic acid], the IC50 at α4β1 [4] (setting [5]) was > 5000 nM; on human α4β7 integrin (setting [6]) it was 40 nM.
